# Experimental data from US20080096859A1, “Compositions and Methods for Treating Ophthalmic Diseases” (priority 2004, published 2008).
# Counter-ions that a name gives are not always drawn.
row,melting point [°C],SMILES
1,154 to 156,c1ccc(CNC[C@@H]2CCN(CCc3c[nH]c4ccc(Cn5cncn5)cc34)C2)cc1 (as salt: oxalate)
2,189 to 190,c1ccc(CCNC[C@@H]2CCN(CCc3c[nH]c4ccc(-n5cnnc5)cc34)C2)cc1 (as salt: oxalate) (hydrate or solvate)
